In US8952024B2, “Herbicidal pyrimidone derivatives” (E I du Pont de Nemours and Company, priority 2009, dated 2015):

Key:
Format in all cases: in vivo
[1] = tested on: cocklebur (Xanthium strumarium); test: Test B pre-/postemergence plant response
Summary of the method: (§1)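 Visual ratings on a 0–100 scale (100 = complete control) were made versus untreated controls 13–15 days after treatment in a greenhouse. Compounds in surfactant-containing non-phytotoxic solvent were applied preemergence to seeds in loam–sand blend or postemergence to 1- to 4-leaf plants (2–18 cm).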

[2] = tested on: goosegrass (Eleusine indica); test: Test B pre-/postemergence plant response
Summary of the method: as §1

[3] = tested on: johnsongrass (Sorghum halepense); test: Test B pre-/postemergence plant response
Summary of the method: as §1

kochia (Kochia scoparia) = test: Test B pre-/postemergence plant response; conditions: Postemergence
Summary of the method: as §1

[4] = tested on: pigweed (Amaranthus retroflexus); test: Test B pre-/postemergence plant response
Summary of the method: as §1

[5] = tested on: ragweed (common ragweed, Ambrosia elatior); test: Test B pre-/postemergence plant response
Summary of the method: as §1

soybean (Glycine max) = test: Test B pre-/postemergence plant response
Summary of the method: as §1

[6] = tested on: velvetleaf (Abutilon theophrasti); test: Test B pre-/postemergence plant response
Summary of the method: as §1

[7] = tested on: wheat (Triticum aestivum); test: Test B pre-/postemergence plant response
Summary of the method: as §1

wild oat (Avena fatua) = test: Test B pre-/postemergence plant response
Summary of the method: as §1

[8] = tested on: canarygrass (Phalaris minor); test: Test B postemergence plant response; conditions: Postemergence
Summary of the method: (§2)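 Visual ratings from 0 (no effect) to 100 (complete control), made against controls 13–15 days after treatment, kept in a greenhouse. Compounds were applied postemergence to potted plants at the 1- to 4-leaf stage (2–18 cm).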

[9] = tested on: chickweed (Stellaria media); test: Test B postemergence plant response; conditions: Postemergence
Summary of the method: as §2

[10] = tested on: windgrass (Apera spica-venti); test: Test B postemergence plant response; conditions: Postemergence
Summary of the method: as §2

[11] = Postemergence, 31 g ai/ha, 0 to 100 scale (0 no effect, 100 complete control)
[12] = Postemergence, 125 g ai/ha, scale 0 to 100 (0 no effect, 100 complete control)
[13] = Postemergence, 250 g ai/ha, scale 0 to 100 (0 no effect, 100 complete control), 13 to 15 days
[14] = 31 g ai/ha, 0 to 100 scale (0 no effect, 100 complete control)
[15] = 125 g ai/ha, scale 0 to 100 (0 no effect, 100 complete control)
[16] = 250 g ai/ha, scale 0 to 100 (0 no effect, 100 complete control), 13 to 15 days
[17] = Preemergence, 62 g ai/ha, scale 0 to 100 (0 no effect, 100 complete control)
[18] = Preemergence, 125 g ai/ha, scale 0 to 100, 0 no effect, 100 complete control
[19] = Preemergence, 250 g ai/ha, 0 to 100 scale
[20] = Postemergence, 62 g ai/ha, scale 0 to 100 (0 no effect, 100 complete control)
[21] = Preemergence, 31 g ai/ha, scale 0 to 100 (0 no effect, 100 complete control)
[22] = 62 g ai/ha, scale 0 to 100 (0 no effect, 100 complete control)

O=C1CCCC(O)=C1C(=O)c1cnc(-c2cccs2)n(C2CCCCC2)c1=O [Compound 189]
50: Plant response rating, Johnsongrass [3, 11]
100: Plant response rating, Cocklebur [1, 12] | Plant response rating, Cocklebur [1, 13] | Plant response rating, Kochia (kochia (Kochia scoparia); [16]) | Plant response rating, Pigweed [4, 12] | Plant response rating, Pigweed [4, 13] | Plant response rating, Soybean (soybean (Glycine max); [13]) | Plant response rating, Velvetleaf [6, 12] | Plant response rating, Velvetleaf [6, 13] | Plant response rating, Chickweed [9, 15] | Plant response rating, Chickweed [9, 16]
10: Plant response rating, Ragweed [5, 11] | Plant response rating, Oat, Wild (wild oat (Avena fatua); [12]) | Plant response rating, Canarygrass [8, 16]
80: Plant response rating, Pigweed [4, 11] | Plant response rating, Ragweed [5, 13] | Plant response rating, Windgrass [10, 16]
70: Plant response rating, Johnsongrass [3, 13]
65: Plant response rating, Johnsongrass [3, 12]
90: Plant response rating, Goosegrass [2, 12] | Plant response rating, Goosegrass [2, 13] | Plant response rating, Soybean (soybean (Glycine max); [11])
85: Plant response rating, Kochia (kochia (Kochia scoparia); [14]) | Plant response rating, Velvetleaf [6, 11]
25: Plant response rating, Oat, Wild (wild oat (Avena fatua); [13]) | Plant response rating, Windgrass [10, 14]
0: Plant response rating, Wheat [7, 11] | Plant response rating, Wheat [7, 12] | Plant response rating, Wheat [7, 13] | Plant response rating, Canarygrass [8, 14]
5: Plant response rating, Oat, Wild (wild oat (Avena fatua); [11]) | Plant response rating, Canarygrass [8, 15]
60: Plant response rating, Cocklebur [1, 11] | Plant response rating, Goosegrass [2, 11] | Plant response rating, Windgrass [10, 15]
75: Plant response rating, Ragweed [5, 12]
98: Plant response rating, Kochia (kochia (Kochia scoparia); [15]) | Plant response rating, Soybean (soybean (Glycine max); [12]) | Plant response rating, Chickweed [9, 14]

COc1ccc(-n2c(-c3ccccc3)ncc(C(=O)C3=C(O)CCCC3=O)c2=O)cc1OC [Compound 218]
100: Cocklebur plant response rating [1, 19] | Plant response rating, Kochia (kochia (Kochia scoparia); [15]) | Plant response rating, Kochia (kochia (Kochia scoparia); [16]) | Plant response rating, Pigweed [4, 11] | Plant response rating, Pigweed [4, 20] | Plant response rating, Pigweed [4, 13] | Plant response rating, Pigweed [4, 21] | Plant response rating, Pigweed [4, 17] | Plant response rating, Pigweed [4, 18] | Pigweed plant response rating [4, 19] | Plant response rating, Ragweed [5, 13] | Ragweed plant response rating [5, 19] | Plant response rating, Soybean (soybean (Glycine max); [20]) | Plant response rating, Soybean (soybean (Glycine max); [13]) | Plant response rating, Velvetleaf [6, 20] | Plant response rating, Velvetleaf [6, 13] | Velvetleaf plant response rating [6, 19] | Plant response rating, Chickweed [9, 14] | Plant response rating, Chickweed [9, 22] | Plant response rating, Chickweed [9, 15] | Plant response rating, Chickweed [9, 16]
85: Plant response rating, Kochia (kochia (Kochia scoparia); [22]) | Plant response rating, Ragweed [5, 21] | Plant response rating, Soybean (soybean (Glycine max); [11]) | Plant response rating, Velvetleaf [6, 11] | Plant response rating, Velvetleaf [6, 17]
35: Plant response rating, Goosegrass [2, 13] | Plant response rating, Kochia (kochia (Kochia scoparia); [14])
20: Plant response rating, Johnsongrass [3, 18] | Plant response rating, Windgrass [10, 22]
5: Plant response rating, Canarygrass [8, 16]
55: Plant response rating, Johnsongrass [3, 12]
40: Plant response rating, Oat, Wild (wild oat (Avena fatua); [11])
60: Plant response rating, Goosegrass [2, 17] | Plant response rating, Oat, Wild (wild oat (Avena fatua); [13])
15: Plant response rating, Goosegrass [2, 12]
65: Plant response rating, Soybean (soybean (Glycine max); [17])
0: Plant response rating, Cocklebur [1, 17] | Plant response rating, Goosegrass [2, 11] | Plant response rating, Johnsongrass [3, 21] | Plant response rating, Johnsongrass [3, 17] | Plant response rating, Soybean (soybean (Glycine max); [21]) | Plant response rating, Wheat [7, 11] | Plant response rating, Wheat [7, 20] | Plant response rating, Wheat [7, 13] | Plant response rating, Wheat [7, 21] | Plant response rating, Wheat [7, 17] | Plant response rating, Wheat [7, 18] | Wheat plant response rating [7, 19] | Plant response rating, Oat, Wild (wild oat (Avena fatua); [21]) | Plant response rating, Oat, Wild (wild oat (Avena fatua); [17]) | Plant response rating, Oat, Wild (wild oat (Avena fatua); [18]) | Oat, Wild plant response rating (wild oat (Avena fatua); [19]) | Plant response rating, Canarygrass [8, 14] | Plant response rating, Canarygrass [8, 22] | Plant response rating, Canarygrass [8, 15]
90: Plant response rating, Cocklebur [1, 18] | Soybean plant response rating (soybean (Glycine max); [19]) | Plant response rating, Velvetleaf [6, 18]
45: Johnsongrass plant response rating [3, 19] | Plant response rating, Oat, Wild (wild oat (Avena fatua); [20]) | Plant response rating, Windgrass [10, 16]
95: Plant response rating, Ragweed [5, 11] | Plant response rating, Ragweed [5, 20] | Plant response rating, Ragweed [5, 17]
10: Plant response rating, Goosegrass [2, 20] | Plant response rating, Goosegrass [2, 21] | Plant response rating, Windgrass [10, 14]
98: Plant response rating, Goosegrass [2, 18] | Goosegrass plant response rating [2, 19] | Plant response rating, Ragweed [5, 18]
80: Plant response rating, Johnsongrass [3, 13] | Plant response rating, Soybean (soybean (Glycine max); [18]) | Plant response rating, Velvetleaf [6, 21]
